# Laboratory results as given in patent US20240336604A1 (THE UNITED STATES OF AMERICA, AS REPRESENTED BY THE …, priority 2021, published 2024).
# What was measured:
# Assay type in all cases: cell-based
# D3 DAR [1] = target: T1, D3 DAR (Homo sapiens, UniProt P35462); experiment: DiscoverX D3 DAR β-arrestin recruitment assay; design: host or cells: CHO; conditions: for IC50: EC80 concentration of DA (30 nM), read-out: D3 DAR IC50; for Emax / D3 DAR Imax: Imax=maximum inhibition, EC80 DA (30 nM)
# Excerpt: A D3 DAR β-arrestin cell line from DiscoverX (Fremont, CA) was used as described in the protocol below (Table 2). A CHO cell line engineered to overexpress the D3 DAR fused with a small 42-amino acid fragment of β-galactosidase called ProLink™ and a fusion protein consisting of β-arrestin and a larger N-terminal deletion mutant of β-galactosidase was used (DiscoverX catalogue number 93-0579C2). When the D3 DAR is activated by dopamine, it stimulates binding of β-arrestin to ProLink-tagged D3 DARs, and the two complementary parts of β-galactosidase form a functional enzyme. When substrate (PathHunter® Detection reagent, DiscoverX 93-0001) is added, β-galactosidase hydrolyzes it and generates a chemiluminescent signal.
# D3 DAR [2] = target: T1, D3 DAR; experiment: Go BRET activation assay, D3 DAR; conditions: EC80 DA (30 nM); for Emax: 5 min, read-out: D3 Go BRET Imax
# Procedure: Briefly, HEK293T cells transiently expressing either the D2 DAR or D3 DAR and GαoA-Rluc8, untagged-β1, and mVenus-γ2 were harvested with EBSS, plated in 96-well white plates at 20,000 cells/well in DPBS and incubated at RT for 45 min. […] BRET signal was determined by quantifying and calculating the ratio of the light emitted by mVenus (525 nm) over that emitted by RLuc8 (485 nm) using a PHERAstar FSX Microplate Reader (BMG Labtech).
# D2 DAR = D2 DAR (Homo sapiens, UniProt P14416); experiment: DiscoverX D2 DAR β-arrestin recruitment assay; design: host or cells: CHO; conditions: EC80 concentration of DA (1 μM)
# Chain of D2 DAR (P14416 whole entry, the tested form may be a part): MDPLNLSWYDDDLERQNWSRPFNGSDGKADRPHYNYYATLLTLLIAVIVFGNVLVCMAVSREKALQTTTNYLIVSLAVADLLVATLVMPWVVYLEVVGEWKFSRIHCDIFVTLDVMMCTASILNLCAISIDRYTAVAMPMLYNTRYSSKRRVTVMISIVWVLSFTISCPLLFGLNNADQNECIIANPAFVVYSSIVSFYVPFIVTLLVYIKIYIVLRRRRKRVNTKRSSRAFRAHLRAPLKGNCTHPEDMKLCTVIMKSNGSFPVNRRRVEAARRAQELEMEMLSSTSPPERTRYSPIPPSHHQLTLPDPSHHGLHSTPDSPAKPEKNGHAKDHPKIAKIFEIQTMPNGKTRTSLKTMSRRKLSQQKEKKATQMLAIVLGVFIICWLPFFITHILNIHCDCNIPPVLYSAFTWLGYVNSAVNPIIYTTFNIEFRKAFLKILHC
# Excerpt: For a secondary-screen and selectivity assays, DAR PathHunter®-arrestin GPCR cell lines from DiscoverX (Fremont, CA) were used. In the D2 DAR PathHunter®-arrestin GPCR cell line, the D2 DAR is overexpressed and fused with a small 42-amino acid fragment of β-galactosidase called ProLink™ on a CHO cellular background expressing a fusion protein of β-arrestin and a larger N-terminal deletion mutant of β-galactosidase (“enzyme acceptor”). When the D2 DAR is activated by dopamine, it stimulates binding of β-arrestin to the ProLink-tagged DAR and the two complementary parts of β-galactosidase form a functional enzyme. When substrate (PathHunter™ Detection reagent) is added, β-galactosidase hydrolyzes it and generates a chemiluminescent signal.
# T1 sequence (P35462 whole entry, the tested form may be a part): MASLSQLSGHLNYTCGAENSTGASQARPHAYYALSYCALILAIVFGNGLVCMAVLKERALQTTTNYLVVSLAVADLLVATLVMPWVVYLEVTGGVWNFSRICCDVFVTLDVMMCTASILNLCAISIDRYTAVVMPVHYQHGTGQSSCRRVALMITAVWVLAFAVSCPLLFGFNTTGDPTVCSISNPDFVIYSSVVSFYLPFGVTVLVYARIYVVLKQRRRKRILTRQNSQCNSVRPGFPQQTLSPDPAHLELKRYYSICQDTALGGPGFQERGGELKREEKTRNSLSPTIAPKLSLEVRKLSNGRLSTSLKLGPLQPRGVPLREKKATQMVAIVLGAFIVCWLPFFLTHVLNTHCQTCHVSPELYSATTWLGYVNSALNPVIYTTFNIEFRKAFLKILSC
Compound,IC50 (D3 DAR [1]) [µM],Emax (D3 DAR [1]) [%],IC50 (D3 DAR [2]) [µM],D2 DAR Imax (D2 DAR),IC50 (D2 DAR) [µM],Emax (D3 DAR [2]) [%],D3 DAR Imax (D3 DAR [1]),D3 Go BRET Imax (D3 DAR [2])
Cc1ccc(NS(=O)(=O)c2c(C)[nH]c(C)c2C(=O)N2CCCC2)cc1C [compound 12],10 to 50,80 to 100,> 50,NA (“NA” indicates not active),> 100,,,
Cc1ccc(NS(=O)(=O)c2c(C)[nH]c(C)c2C(=O)N2CCCCC2)cc1Cl [compound 11],10 to 50,80 to 100,10 to 50,NA (“NA” indicates not active),> 100,> 100,,
"Cc1[nH]c(C)c(S(=O)(=O)Nc2cc(Cl)c(C(F)(F)F)cc2Br)c1C(=O)N1CCC(F)(F)C1 [compound 41, N-(2-bromo-5-chloro-4-(trifluoromethyl)phenyl)-4-(3,3-difluoropyrrolidine-1-carbonyl)-2,5-dimethyl-1H-pyrrole-3-sulfonamide]",< 10,80 to 100,,NA (“NA” indicates not active),> 100,,,
"Cc1[nH]c(C)c(S(=O)(=O)Nc2ccc(C(F)(F)F)c(Cl)c2)c1C(=O)N(C)C [compound 21, 4-(n-(3-chloro-4-(trifluoromethyl)phenyl)sulfamoyl)-N,N,2,5-tetramethyl-1H-pyrrole-3-carboxamide]",< 10,80 to 100,10 to 50,NA (“NA” indicates not active),> 100,> 100,,
Cc1[nH]c(C)c(S(=O)(=O)Nc2ccc(F)cc2)c1C(=O)N1CCCC1 [compound 32],> 100,,1 to 10,NA (“NA” indicates not active),> 100,> 100,Curve Incomplete,
"Cc1[nH]c(C)c(S(=O)(=O)Nc2cc(Cl)c(C(F)(F)F)c(Cl)c2)c1C(=O)N1CCC(F)(F)C1 [compound 35, N-(3,5-dichloro-4-(trifluoromethyl)phenyl)-4-(3,3-difluoropyrrolidine-1-carbonyl)-2,5-dimethyl-1H-pyrrole-3-sulfonamide]",< 10,80 to 100,< 1,NA (“NA” indicates not active),> 100,80 to 100,,
CCOC(=O)C1=NOC2(C1)C(=O)Nc1ccc(OC(F)(F)F)cc12 (stereo not shown) [compound 45],10 to 50,,,NA (“NA” indicates not active),> 100,,+ (A “+” is used to denote compounds with D3 DAR Imax (Imax=maximum inhibition) between 80% to 100%),
Cc1[nH]c(C)c(S(=O)(=O)Nc2ccc(Cl)c(C(F)(F)F)c2)c1C(=O)N1CCCC1 [compound 7],< 10,80 to 100,1 to 10,NA (“NA” indicates not active),> 100,> 100,,
CCN(C)C(=O)c1c(C)[nH]c(C)c1S(=O)(=O)Nc1ccc(C(F)(F)F)c(Cl)c1 [compound 29],10 to 50,80 to 100,10 to 50,NA (“NA” indicates not active),> 100,> 100,,
[2H]C1([2H])CCC([2H])([2H])N1C(=O)c1c(C)[nH]c(C)c1S(=O)(=O)Nc1ccc(C(F)(F)F)c(Cl)c1 [compound 23],< 10,80 to 100,1 to 10,NA (“NA” indicates not active),> 100,> 100,,
Cc1ccc(NS(=O)(=O)c2c(C)[nH]c(C)c2C(=O)N2CCCC2)cc1F [compound 16],10 to 50,80 to 100,10 to 50,NA (“NA” indicates not active),> 100,> 100,,
"Cc1[nH]c(C)c(S(=O)(=O)Nc2ccc(C(F)(F)F)c(Cl)c2)c1C(=O)N1CCN(C(=O)OC(C)(C)C)CC1 [compound 19, tert-butyl 4-(4-(N-(3-chloro-4-(trifluoromethyl)phenyl)sulfamoyl)-2,5-dimethyl-1H-pyrrole-3-carbonyl)piperazine-1-carboxylate]",50 to 100,80 to 100,10 to 50,NA (“NA” indicates not active),> 100,> 100,,
CCc1ccc(NS(=O)(=O)c2c(C)[nH]c(C)c2C(=O)N2CCCC2)cc1 [compound 15],< 10,80 to 100,10 to 50,NA (“NA” indicates not active),> 100,80 to 100,,
CCOC(=O)C1=NOC2(C1)C(=O)Nc1ccc(OC(F)(F)F)cc12 (stereo not shown) [compound 44],< 10,80 to 100,> 50,NA (“NA” indicates not active),> 100,,,NA (NA means not active)
Cc1[nH]c(C)c(S(=O)(=O)Nc2ccc(C(C)C)cc2)c1C(=O)N1CCCC1 [compound 4],10 to 50,80 to 100,1 to 10,NA (“NA” indicates not active),> 100,> 100,,
Cc1ccc(CNS(=O)(=O)c2c(C)[nH]c(C)c2C(=O)N2CCCC2)cc1Cl [compound 9],50 to 100,,> 50,NA (“NA” indicates not active),> 100,,Curve Incomplete,NA (NA means not active)
"N-(3-choro-4-methylphenyl)-2,5-dimethyl-4-(pyrrolidine-1-carbonyl)-1H-pyrrole-3-sulfonamide [compound 31]",> 100,,10 to 50,Curve Incomplete,> 100,,Curve Incomplete,"++ (a “++” indicates a detectable Imax of more than 100%, indicative of possible inverse agonist activity)"
"Cc1[nH]c(C)c(S(=O)(=O)Nc2ccc(C3CC3)c(Cl)c2)c1C(=O)N1CCC(F)(F)C1 [compound 36, N-(3-chloro-4-cyclopropylphenyl)-4-(3,3-difluoropyrrolidine-1-carbonyl)-2,5-dimethyl-1H-pyrrole-3-sulfonamide]",10 to 50,80 to 100,1 to 10,NA (“NA” indicates not active),> 100,80 to 100,,
"Cc1[nH]c(C)c(S(=O)(=O)Nc2ccc(C(F)(F)F)c(Cl)c2)c1C(=O)O [compound 22, 4-(N-(3-chloro-4-(trifluoromethyl)phenyl)sulfamoyl)-2,5-dimethyl-1H-pyrrole-3-carboxylic acid]",50 to 100,,10 to 50,NA (“NA” indicates not active),> 100,> 100,Curve Incomplete,
Cc1[nH]c(C)c(S(=O)(=O)N2CCC(F)(F)C2)c1C(=O)Nc1ccc(C(F)(F)F)c(Cl)c1 [compound 24],50 to 100,,> 50,NA (“NA” indicates not active),> 100,,Curve Incomplete,
"N-(3-chloro-4-(trifluoromethyl)phenyl)-2,5-dimethyl-4-(morpholine-4-carbonyl)-1H-pyrrole-3-sulfonamide [compound 30]",> 100,,,NA (“NA” indicates not active),> 100,,Curve Incomplete,
